Counter-ions that a name gives are not always drawn.
Question: For c1ccc2c(c1)OC[C@@H](COc1nccnc1N1CCNCC1)O2 (as salt: hydrochloride) [Example 148, 2-[(2S)-2,3-Dihydro-1,4-benzodioxin-2-ylmethoxy]-3-(1-piperazinyl)pyrazine], which melting point is on record?
Answer: Its melting point is 160 °C (dec.).

Question: With C[C@@H]1CNC[C@H](C)N1c1nccnc1OCCOc1cccnc1 (as salt: fumarate) [Example 179, cis-2,6-Dimethyl-1-{3-[2-(3-pyridinyloxy)ethoxy]-2-pyrazinyl}piperazine] as the compound, how does the melting point read?
Answer: The melting point was 157 °C (dec.).

Question: With COc1ccccc1/C=C/COc1nccnc1N1CCNCC1 (as salt: maleate) [Example 212, 2-{[(2E)-3-(2-Methoxyphenyl)-2-propenyl]oxy}-3-(1-piperazinyl)pyrazine] as the compound, how does the melting point read?
Answer: Its melting point is 136 °C (dec.).

Question: Which melting point does the source give for c1cc(CCCOc2nccnc2N2CCNCC2)ccn1 (as salt: maleate) [Example 127, 2-(1-piperazinyl)-3-[3-(4-pyridinyl)propoxy]pyrazine] here?
Answer: The melting point was 90 to 91 °C.

Question: Which melting point does the source give for c1cnc(N2CCNCC2)c(OCCOc2ccc3c(c2)OCCO3)n1 (as salt: hydrochloride) [Example 210, 2-[2-(2,3-Dihydro-1,4-benzodioxin-6-yloxy)ethoxy]-3-(1-piperazinyl)pyrazine] here?
Answer: The melting point was 158 to 160 °C.

Question: With c1ccc(Nc2ccc(OCCOc3nccnc3N3CCNCC3)cc2)cc1 (as salt: maleate) [Example 111, N-Phenyl-4-(2-{[3-(1-piperazinyl)-2-pyrazinyl]oxy}ethoxy)aniline] as the compound, how does the melting point read?
Answer: Its melting point is 132 to 133 °C.

Question: For c1ccc(OCCOc2nccnc2N2CCNCC2)nc1 (as salt: maleate) [Example 152, 2-(2-Pyridyloxy)ethyl 3-(1-piperazinyl)-2-pyrazinyl ether], which melting point is on record?
Answer: Its melting point is 130 to 132 °C.

Question: With O=[N+]([O-])c1ccc2c(c1)OC(COc1nccnc1N1CCNCC1)CO2 (stereo not shown) [Example 146, 2-(7-Nitro-2,3-dihydro-1,4-benzodioxin-2-ylmethoxy)-3-(1-piperazinyl)pyrazine] as the compound, how does the melting point read?
Answer: The melting point was 133 to 135 °C.

Question: With c1cnc2ccc(OCCOc3nccnc3N3CCNCC3)cc2c1 (as salt: maleate) [Example 136, 2-(6-Quinolinyloxy)ethyl 3-(1-piperazinyl)-2-pyrazinyl ether] as the compound, how does the melting point read?
Answer: Its melting point is 167 to 169 °C.

Question: For COc1ccccc1CCCOc1nccnc1N1CCNCC1 (as salt: maleate) [Example 211, 2-[3-(2-Methoxyphenyl)propoxy]-3-(1-piperazinyl)pyrazine], which melting point is on record?
Answer: The melting point was 132 to 133 °C.

Question: Which melting point does the source give for CN(CCOc1ccccc1)c1nccnc1N1CCNCC1 (as salt: fumarate) [Example 47, N-Methyl-N-(2-phenoxyethyl)-3-(1-piperazinyl)-2-pyrazinamine] here?
Answer: Its melting point is 154 °C.

Question: Which melting point does the source give for c1cnc2ccc(COc3nccnc3N3CCNCC3)cc2c1 (as salt: fumarate) [Example 213, 3-(1-Piperazinyl)-2-pyrazinyl 6-quinolinylmethyl ether] here?
Answer: Its melting point is 207 to 209 °C.

Question: For c1cc(OCCOc2nccnc2N2CCNCC2)c2ncoc2c1 (as salt: maleate) [Example 159, 2-(1,3-Benzoxazol-4-yloxy)ethyl 3-(1-piperazinyl)-2-pyrazinyl ether], which melting point is on record?
Answer: The melting point was 191 to 193 °C.

Question: For Cc1nc(OCCOc2ccccc2)c(N2CCNCC2)nc1C (as salt: hydrochloride) [Example 183, 5,6-Dimethyl-2-(2-phenoxyethoxy)-3-(1-piperazinyl)pyrazine], which melting point is on record?
Answer: Its melting point is 138 to 140 °C.

Question: Which melting point does the source give for Cc1ccc(OCCOc2nccnc2N2CCNC[C@H]2C)cn1 (as salt: fumarate) [Example 176, (2R)-2-Methyl-1-(3-{2-[(6-methyl-3-pyridinyl)oxy]ethoxy}-2-pyrazinyl)piperazine] here?
Answer: Its melting point is 115 °C (dec.).

Question: With OCc1cccc(OCCOc2nccnc2N2CCNCC2)c1 (as salt: maleate) [Example 108, [3-(2-{[3-(1-piperazinyl)-2-pyrazinyl]oxy}ethoxy)phenyl]methanol] as the compound, how does the melting point read?
Answer: The melting point was 123.2 to 123.5 °C.

Question: Which melting point does the source give for Fc1ccccc1OCCOc1nccnc1N1CCNCC1 (as salt: maleate) [Example 95, 2-(2-Fluorophenoxy)ethyl 3-(1-piperazinyl)-2-pyrazinyl ether] here?
Answer: Its melting point is 171 to 173 °C.

Question: For Fc1cccc(F)c1OCCOc1nccnc1N1CCNCC1 [Example 83, 2-(2,6-Difluorophenoxy)ethyl 3-(1-piperazinyl)-2-pyrazinyl ether], which melting point is on record?
Answer: The melting point was 101 to 102 °C.

Question: For CCOc1ncccc1OCCOc1nccnc1N1CCNCC1 (as salt: fumarate) [Example 199, 2-{2-[(2-Ethoxy-3-pyridinyl)oxy]ethoxy}-3-(1-piperazinyl)pyrazine], which melting point is on record?
Answer: The melting point was 186 °C.

Question: For c1cc(OCCOc2nccnc2N2CCNCC2)c2ccncc2c1 (as salt: maleate) [Example 134, 2-(5-Isoquinolinyloxy)ethyl 3-(1-piperazinyl)-2-pyrazinyl ether], which melting point is on record?
Answer: The melting point was 178 to 180.5 °C.

Question: With c1cncc(OCCOc2nc3ccccc3nc2N2CCNCC2)c1 (as salt: maleate) [Example 162, 2-[2-(3-Pyridinyloxy)ethoxy]-3-(1-piperazinyl)quinoxaline] as the compound, how does the melting point read?
Answer: Its melting point is 137 to 139 °C.

Question: With Cc1cccc(CCCOc2nccnc2N2CCNCC2)n1 (as salt: maleate) [Example 128, 2-[3-(6-Methyl-2-pyridinyl)propoxy]-3-(1-piperazinyl)pyrazine] as the compound, how does the melting point read?
Answer: The melting point was 134 to 136 °C.

Question: Which melting point does the source give for Cc1ccccc1OCCOc1nccnc1N1CCNCC1 (as salt: maleate) [Example 93, 2-(2-Methylphenoxy)ethyl 3-(1-piperazinyl)-2-pyrazinyl ether] here?
Answer: Its melting point is 151 to 152 °C.

Question: For OCCOc1ccc(OCCOc2nccnc2N2CCNCC2)cc1 (as salt: maleate) [Example 120, 2-[4-(2-{[3-(1-piperazinyl)-2-pyrazinyl]oxy}ethoxy)phenoxy]ethanol], which melting point is on record?
Answer: Its melting point is 127 to 129 °C.

Question: Which melting point does the source give for CSc1ncccc1OCCOc1nccnc1N1CCNCC1 (as salt: fumarate) [Example 197, 2-(2-{[2-(Methylsulfanyl)-3-pyridinyl]oxy}ethoxy)-3-(1-piperazinyl)pyrazine] here?
Answer: The melting point was 201 °C.

Question: For c1cncc(OCCOc2nccnc2N2CCNCC2)c1 (as salt: hydrochloride) [Example 150, 2-(3-Pyridyloxy)ethyl 3-(1-piperazinyl)-2-pyrazinyl ether], which melting point is on record?
Answer: The melting point was 170 to 175 °C.

Question: With c1ccc2c(c1)CCC(COc1nccnc1N1CCNCC1)C2 (stereo not shown) (as salt: fumarate) [Example 207, 3-(1-piperazinyl)-2-pyrazinyl 1,2,3,4-tetrahydro-2-naphthalenylmethyl ether] as the compound, how does the melting point read?
Answer: The melting point was 186 to 188 °C.

Question: Which melting point does the source give for c1cncc(OCCOc2nsnc2N2CCNCC2)c1 (as salt: maleate) [Example 209, 1-{4-[2-(3-Pyridinyloxy)ethoxy]-1,2,5-thiadiazol-3-yl}piperazine] here?
Answer: Its melting point is 116 to 118 °C.

Question: Which melting point does the source give for Fc1cc(F)cc(OCCOc2nccnc2N2CCNCC2)c1 (as salt: toluenesulfonate) [Example 114, 2-[2-(3,5-Difluorophenoxy)ethoxy]-3-(1-piperazinyl)pyrazine] here?
Answer: The melting point was 118 to 119 °C.

Question: Which melting point does the source give for CN1CCN(c2nccnc2OCC2COc3ccccc3O2)CC1 (stereo not shown) (as salt: hydrochloride) [Example 169, 2,3-Dihydro-1,4-benzodioxin-2-ylmethyl 3-(4-methyl-1-piperazinyl)-2-pyrazinyl ether] here?
Answer: The melting point was 160 to 167 °C.

Question: Which melting point does the source give for c1ccc(OCCOc2cccnc2N2CCNCC2)cc1 (as salt: hydrochloride) [Example 185, 1-[3-(2-Phenoxyethoxy)-2-pyridinyl]piperazine] here?
Answer: Its melting point is 91 to 120 °C.

Question: For COc1cccc(OCCOc2nccnc2N2CCNCC2)c1 (as salt: toluenesulfonate) [Example 102, 2-[2-(3-Methoxyphenoxy)ethoxy]-3-(1-piperazinyl)pyrazine], which melting point is on record?
Answer: The melting point was 131 to 133 °C.

Question: Which melting point does the source give for Brc1cccc(OCCOc2nccnc2N2CCNCC2)c1 [Example 37, 2-(3-Bromophenoxy)ethyl 3-(1-piperazinyl)-2-pyrazinyl ether] here?
Answer: The melting point was 62 to 63 °C.

Question: With N#Cc1ccccc1OCCOc1nccnc1N1CCNCC1 (as salt: maleate) [Example 96, 2-(2-Cyanophenoxy)ethyl 3-(1-piperazinyl)-2-pyrazinyl ether] as the compound, how does the melting point read?
Answer: The melting point was 165 to 166 °C.

Question: For CN1CC(COc2nccnc2N2CCNCC2)Oc2ccccc21 (stereo not shown) (as salt: hydrochloride) [Example 131, 2-(4-Methyl-3,4-dihydro-2H-1,4-benzoxazin-2-ylmethoxy)-3-(1-piperazinyl)-pyrazine], which melting point is on record?
Answer: Its melting point is 119 °C (dec.).

Question: Which melting point does the source give for Cc1ccc(OCCOc2nccnc2N2CCNCC2)cn1 (as salt: hydrochloride) [Example 153, 2-(6-Methyl-3-pyridyloxy)ethyl 3-(1-piperazinyl)-2-pyrazinyl ether] here?
Answer: Its melting point is 157 °C (dec.).

Question: With c1ccc(OCCCCOc2nccnc2N2CCNCC2)cc1 (as salt: hydrochloride) [Example 98, 4-(Phenoxy)butyl 3-(1-piperazinyl)-2-pyrazinyl ether] as the compound, how does the melting point read?
Answer: Its melting point is 129 to 131 °C.

Question: For CNc1ccc2cccc(OCCOc3nccnc3N3CCNCC3)c2n1 [Example 181, N-Methyl-8-(2-{[3-(1-piperazinyl)-2-pyrazinyl]oxy}ethoxy)-2-quinolinamine], which melting point is on record?
Answer: Its melting point is 54 to 56.5 °C.

Question: Which melting point does the source give for CC1CNCCN1c1nc2ccccc2nc1OCCOc1cccc2c1OCO2 (stereo not shown) (as salt: hydrochloride) [Example 182, 2-[2-(1,3-Benzodioxol-4-yloxy)ethoxy]-3-(2-methyl-1-piperazinyl)quinoxaline] here?
Answer: The melting point was 133 to 138 °C.

Question: Which melting point does the source give for CCC1CNCCN1c1nccnc1OCCOc1cccnc1 (stereo not shown) (as salt: fumarate) [Example 178, 2-Ethyl-1-{3-[2-(3-pyridinyloxy)ethoxy]-2-pyrazinyl}piperazine] here?
Answer: The melting point was 125 to 127 °C.

Question: With c1ccc(OCCCOc2nccnc2N2CCNCC2)cc1 (as salt: hydrochloride) [Example 90, 3-(Phenoxy)propyl 3-(1-piperazinyl)-2-pyrazinyl ether] as the compound, how does the melting point read?
Answer: Its melting point is 146 to 146.5 °C.

Question: Which melting point does the source give for c1ccc(OCCOc2nc3ccccc3nc2N2CCNCC2)cc1 (as salt: hydrochloride) [Example 3, 2-(2-Phenoxyethoxy)-3-(1-piperazinyl)quinoxaline] here?
Answer: Its melting point is 123 to 126 °C.

Question: With NC(=O)c1cccc(OCCOc2nccnc2N2CCNCC2)c1 (as salt: maleate) [Example 110, 3-(2-{[3-(1-piperazinyl)-2-pyrazinyl]oxy}ethoxy)benzamide] as the compound, how does the melting point read?
Answer: The melting point was 134 to 137 °C.

— patent US7071180B2, “Certain arylaliphatic and heteroaryl-aliphatic piperazinyl pyrazines and their use in the treatment of serotonin-related diseases” (Biovitrum AB, priority 1999, dated 2006)
